The numbers were not newly measured in US20040121305A1, “Generation of efficacy, toxicity and disease signatures and methods of use thereof” (priority 2002, published 2004), which cites them from elsewhere.

For this data set the following is noted: known toxins to be used for toxicity signature generation; organs known to be targeted.

On to `CC(=O)[O-].CC(=O)[O-].[Pb+2]` [lead acetate (PbAc), lead acetate], for which the Target organ/organ system entry is “liver, kidney”. Consider `CC(C)(Oc1ccc(C2CC2(Cl)Cl)cc1)C(=O)O` (stereo not drawn) [ciprofibrate (cipro), ciprofibrate], for which the Target organ/organ system entry is “liver”. As to `CC(=O)Oc1ccccc1C(=O)O` [aspirin], the Target organ/organ system result is on record as “cardiovascular system; kidney”. Consider `Cc1cn([C@H]2C[C@H](N=[N+]=[N-])[C@@H](CO)O2)c(=O)[nH]c1=O` [zidovudine (AZT), zidovudine], for which the Target organ/organ system entry is “blood; liver”. Regarding “interleukin-6 (IL-6): interleukin-6, listed as a known toxin targeting the liver”, the Target organ/organ system result was “liver”. For `CN(C)c1ncnc2c1ncn2[C@@H]1O[C@H](CO)[C@@H](N)[C@H]1O` [puromycin aminonucleoside (PAN), puromycin aminonucleoside], the Target organ/organ system result was “liver; kidney”. `Cc1ccc(C)c(OCCCC(C)(C)C(=O)O)c1` [gamfibrozil]: the Target organ/organ system result is “muscle”.

With `C[C@@H]1[C@H](O)[C@@H](C)/C=C/C=C/C=C/C=C/C=C/C=C/C=C/[C@H](O[C@@H]2O[C@H](C)[C@@H](O)[C@H](N)[C@@H]2O)C[C@@H]2O[C@](O)(C[C@@H](O)C[C@@H](O)[C@H](O)CC[C@@H](O)C[C@@H](O)CC(=O)O[C@H]1C)C[C@H](O)[C@H]2C(=O)O` [amphotericin B], the Target organ/organ system result is recorded as “blood; cardiovascular system; kidney; liver”.

With `Cc1c(C)c2c(c(C)c1O)CCC(C)(COc1ccc(CC3SC(=O)NC3=O)cc1)O2` (stereo not drawn) [troglitazone], the Target organ/organ system entry is listed as “liver”.

As to `CC[C@]1(O)C[C@H]2CN(CCc3c([nH]c4ccccc34)[C@@](C(=O)OC)(c3cc4c(cc3OC)N(C=O)[C@H]3[C@@](O)(C(=O)OC)[C@H](OC(C)=O)[C@]5(CC)C=CCN6CC[C@]43[C@@H]65)C2)C1` [vincristine], the Target organ/organ system entry is on record as “nervous system; cardiovascular system; reproductive”. With `Clc1cc2c(cc1Cl)Oc1cc(Cl)c(Cl)cc1O2` [2,3,7,8-tetrachlorodibenzo-p-dioxin], the Target organ/organ system entry was “liver”.

As for `NNc1ccccc1` [phenylhydrazine (phenylhyrzn), phenylhydrazine], the Target organ/organ system entry is reported as “liver”. As for `[N]=O` [nitric oxide], the Target organ/organ system result is reported as “respiratory system; cardiovascular”. `[F-].[Na+]` [sodium fluoride (NaF), sodium fluoride]: the Target organ/organ system entry is recorded as “liver”. On to `COc1cc(N)c(Cl)cc1C(=O)NC1CCN(CCCOc2ccc(F)cc2)CC1OC` (stereo not drawn) [propulsid], for which the Target organ/organ system result is recorded as “cardiovascular system”. Turning to `Cc1cccc(Nc2cc(Cl)nc(SCC(=O)O)n2)c1C` [Wy-16,463], the Target organ/organ system result is listed as “liver”. As to `[Cd]` [cadmium], the Target organ/organ system result is reported as “kidney; liver; nervous system; respiratory system”. As to `NC(=O)N1c2ccccc2C=Cc2ccccc21` [carbamezipine], the Target organ/organ system entry is “blood; liver; reproductive system”. Regarding `Cc1cccc(C)c1NC(=O)C(C)N` (stereo not drawn) [tocainidine], the Target organ/organ system entry is recorded as “cardiovascular system”. Turning to `Cc1ccc2cc3c(ccc4ccccc43)c3c2c1CC3` [3-methylcholanthrene], the Target organ/organ system result is recorded as “liver”. Turning to `S=C=Nc1cccc2ccccc12` [α-naphthyl isothiocyanate (ANIT), α-naphthyl isothiocyanate], the Target organ/organ system entry is “liver”.

Regarding `Nc1ccc(O)cc1` [4-aminophenol (PAP), 4-aminophenol], the Target organ/organ system result is reported as “kidney”. Take `Cc1nccn1CC1CCc2c(c3ccccc3n2C)C1=O` (stereo not drawn) [ondansetron]: the Target organ/organ system entry was “liver”. Take `CCOC(=O)C(C)(C)Oc1ccc(Cl)cc1` [clofibrate]: the Target organ/organ system result is recorded as “muscle”. Consider `[Cl][Co][Cl]` [cobalt chloride], for which the Target organ/organ system entry is listed as “liver”. For the compound `[AsH3]` [arsenic], the Target organ/organ system entry was “liver”.

With `CC(=O)Nc1ccc(O)cc1` [acetaminophen], the Target organ/organ system result is listed as “kidney”. With `NN` [hydrazine], the Target organ/organ system result is reported as “liver”. Take `c1ccccc1` [benzene]: the Target organ/organ system result is listed as “blood”.

`[Cl][Hg][Cl]` [mercury(II) chloride (HgCl2), mercury(II) chloride]: the Target organ/organ system entry was “kidney”.

As to `CC(=N)S` [thioacetamide], the Target organ/organ system result is “liver; kidney”. For `O=c1cc(-c2ccccc2)oc2ccc3ccccc3c12` [β-naphthoflavone (BNF), β-naphthoflavone], the Target organ/organ system result was “liver”. Regarding `CN(Cc1cnc2nc(N)nc(N)c2n1)c1ccc(C(=O)N[C@@H](CCC(=O)O)C(=O)O)cc1` [methotrexate], the Target organ/organ system result is on record as “liver”.

Take `C=CCO` [allyl alcohol]: the Target organ/organ system entry was “liver”.

On to `CN(C)CCN(Cc1cccs1)c1ccccn1` [methapyrilene], for which the Target organ/organ system result is listed as “liver”. For `Clc1cc(Cl)c(-c2cc(Cl)c(Cl)cc2Cl)cc1Cl` [2,2′,4,4′,5,5′-hexachlorobiphenyl], the Target organ/organ system entry is given as “liver”. With `CCCC(CCC)C(=O)O` [valproic acid], the Target organ/organ system entry was “reproductive system”. On to `CCN(CC)N=O` [diethylntrosamine], for which the Target organ/organ system result is recorded as “liver”. Take corvastatin: the Target organ/organ system result is given as “cardiovascular system; liver”. For `CC[C@H](C)C(=O)O[C@H]1C[C@H](O)C=C2C=C[C@H](C)[C@H](CC[C@@H](O)C[C@@H](O)CC(=O)O)[C@H]21` [pravastatin], the Target organ/organ system result is reported as “cardiovascular system; liver”.

With `ClC(Cl)=C(Cl)C(Cl)=C(Cl)Cl` [hexachloro-1,3-butediene (HCBD), hexachloro-1,3-butediene], the Target organ/organ system result was “kidney”. As to `COc1ccc(CCN2CCC(Nc3nc4ccccc4n3Cc3ccc(F)cc3)CC2)cc1` [astemizole], the Target organ/organ system entry was “cardiovascular system”. `NCCBr` [2-bromoethylamine (BEA), 2-bromoethylamine]: the Target organ/organ system entry is on record as “kidney”. `CNNC` [dimethylhydrazine (DMH), dimethylhydrazine]: the Target organ/organ system entry is “liver”. Regarding `Nc1nc(O)c2ncn(COC(CO)CO)c2n1` [ganciclovir], the Target organ/organ system entry was “blood; liver”.
